Test results: the NIST ThermoML archive (doi:10.1021/je401036f)

Assay: xn = mol fraction of the nth substance listed
Settings: 101 kPa, Liquid; for viscosity: Concentric cylinders viscometry; for mass density: Vibrating tube method

CC(O)CN (stereo not given) [1-amino-2-propanol] + CCC(C)O
Settings | mass density, 313.15 K [kg/m3] | mass density, 318.15 K [kg/m3] | mass density, 323.15 K [kg/m3] | mass density, 328.15 K [kg/m3] | mass density, 333.15 K [kg/m3] | viscosity, 313.15 K [mPa·s] | viscosity, 318.15 K [mPa·s] | viscosity, 323.15 K [mPa·s] | viscosity, 328.15 K [mPa·s] | viscosity, 333.15 K [mPa·s]
x1 = 0.1003 | 803.008 | 798.619 | 794.161 | 789.608 | 784.956 | 2.083 | 1.795 | 1.556 | 1.358 | 1.211
x1 = 0.2005 | 817.246 | 812.957 | 808.592 | 804.15 | 799.616 | 2.436 | 2.094 | 1.814 | 1.576 | 1.398
x1 = 0.3 | 831.847 | 827.606 | 823.3 | 818.925 | 814.474 | 2.887 | 2.466 | 2.124 | 1.845 | 1.637
x1 = 0.3999 | 847.055 | 842.848 | 838.586 | 834.264 | 829.873 | 3.435 | 2.917 | 2.499 | 2.154 | 1.897
x1 = 0.5 | 862.397 | 858.232 | 853.992 | 849.702 | 845.357 | 4.114 | 3.47 | 2.954 | 2.529 | 2.212
x1 = 0.6001 | 877.993 | 873.856 | 869.642 | 865.379 | 861.071 | 4.924 | 4.113 | 3.477 | 2.969 | 2.59
x1 = 0.7 | 893.97 | 889.829 | 885.646 | 881.417 | 877.143 | 6.014 | 4.982 | 4.164 | 3.521 | 3.042
x1 = 0.8 | 910.355 | 906.227 | 902.064 | 897.859 | 893.609 | 7.28 | 5.972 | 4.955 | 4.163 | 3.571
x1 = 0.8999 | 927.181 | 923.11 | 918.943 | 914.764 | 910.537 | 8.894 | 7.219 | 5.938 | 4.947 | 4.21
x1 = 1 | 944.515 | 940.423 | 936.293 | 932.13 | 927.93 | 10.96 | 8.798 | 7.166 | 5.915 | 4.986
